Data reported in patent US8338587B2, “Compounds” (AstraZeneca AB, priority 2009, dated 2012).

The compounds below were run against T1, recombinant human GR (Homo sapiens, UniProt P04150) (assay: Human Glucocorticoid Receptor (GR) Assay (fluorescence polarization competition, Panvera/Invitrogen kit)). Details: GS Red Fluoromone tracer, 2 hours at room temperature, 100% control 10 μM Dexamethasone, read-out: Inhibition of GR binding, IC50.
T1 construct: purchased Panvera/Invitrogen P2812 (kit P2893)
T1 sequence (P04150 1-777): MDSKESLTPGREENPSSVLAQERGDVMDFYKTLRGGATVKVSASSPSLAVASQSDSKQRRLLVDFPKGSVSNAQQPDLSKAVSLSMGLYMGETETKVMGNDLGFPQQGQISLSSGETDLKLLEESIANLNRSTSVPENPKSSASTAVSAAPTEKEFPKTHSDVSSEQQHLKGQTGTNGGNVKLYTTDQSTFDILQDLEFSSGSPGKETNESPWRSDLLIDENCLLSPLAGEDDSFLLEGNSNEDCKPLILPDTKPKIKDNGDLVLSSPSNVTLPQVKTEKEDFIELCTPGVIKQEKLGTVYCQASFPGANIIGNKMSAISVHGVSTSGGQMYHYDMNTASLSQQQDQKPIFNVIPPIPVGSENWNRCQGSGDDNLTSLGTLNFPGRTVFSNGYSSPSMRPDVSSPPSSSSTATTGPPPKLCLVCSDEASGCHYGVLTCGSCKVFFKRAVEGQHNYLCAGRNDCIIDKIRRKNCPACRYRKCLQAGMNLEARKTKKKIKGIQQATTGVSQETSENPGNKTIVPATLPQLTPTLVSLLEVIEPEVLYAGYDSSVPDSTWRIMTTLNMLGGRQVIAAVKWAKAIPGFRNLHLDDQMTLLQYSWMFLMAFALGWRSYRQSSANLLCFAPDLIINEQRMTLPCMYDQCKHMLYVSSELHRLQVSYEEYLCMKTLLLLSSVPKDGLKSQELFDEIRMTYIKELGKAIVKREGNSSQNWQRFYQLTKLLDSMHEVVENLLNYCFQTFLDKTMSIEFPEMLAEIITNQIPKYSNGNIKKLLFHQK
Description: Human Glucocorticoid Receptor (GR) Assay The assay is based on a commercial kit from Panvera/Invitrogen (Part number P2893). The assay technology is fluorescence polarization. The kit utilises recombinant human GR (Panvera, Part number P2812), a Fluoromone™ labelled tracer (GS Red, Panvera, Part number P2894) and a Stabilizing Peptide 10× (Panvera, Part number P2815). The GR and Stabilizing Peptide reagents are stored at −70° C. while the GS Red is stored at −20° C. Also included in the kit are 1M DTT (Panvera, Part number P2325, stored at −20° C.) and GR Screening buffer 10× (Panvera, Part number P2814, stored at −70° C. initially but once thawed stored at room temperature). Avoid repeated freeze/thaws for all reagents. The GR Screening buffer 10× comprises 100 mM potassium phosphate, 200 mM sodium molybdate, 1 mM EDTA and 20% DMSO. Test compounds (1 μL) and controls (1 μL) in 100% DMSO were added to black is polystyrene 384-well plates (Greiner low volume black flat-bottom, part number 784076). 0% control was 100% DMSO and 100% control was 10 μM Dexamethasone. Background solution (8 μL; assay buffer 10×, Stabilizing Peptide, DTT and ice cold MQ water) was added to the background wells. GS Red solution (7 μL; assay buffer 10×, Stabilizing Peptide, DTT, GS Red and ice cold water) was added to all wells except background wells. GR solution (7 μL; assay buffer 10×, Stabilizing Peptide, DTT, GR and ice cold water) was added to all wells. The plate was sealed and incubated in a dark at room temperature for 2 hours. The plate was read in an Analyst plate reader (LJL Biosystems/Molecular Devices Corporation) or other similar plate reader capable of recording fluorescence polarization (excitation wavelength 530 nm, emission wavelength 590 nm and a dichroic mirror at 561 nm).

| IC50 | Compound |
| --- | --- |
| 1.6 nM | CCC(=O)O[C@]1(C(=O)SCC#N)[C@H](C)C[C@H]2[C@@H]3CCC4=Cc5c(cnn5-c5ccc(F)nc5)C[C@]4(C)[C@@]3(F)[C@@H](O)C[C@@]21C [Example 3, (1R,2R,3aS,3bS,10aS,10bR,11S,12aS)-1-{[(Cyanomethyl)sulfanyl]carbonyl}-10b-fluoro-7-(6-fluoropyridin-3-yl)-11-hydroxy-2,10a,12a-trimethyl-1,2,3,3a,3b,4,5,7,10,10a,10b,11,12,12a-tetradecahydrocyclopenta[5,6]naphtho[1,2-f]indazol-1-yl propanoate] |
| 2.8 nM | C[C@@H]1C[C@H]2[C@@H]3CCC4=Cc5c(cnn5-c5ccc(F)nc5)C[C@]4(C)[C@@]3(F)[C@@H](O)C[C@]2(C)[C@@]1(OC(=O)c1cocn1)C(=O)SCF [Example 4, (1R,2R,3aS,3bS,10aS,10bR,11S,12aS)-10b-Fluoro-1-{[(fluoromethyl)sulfanyl]carbonyl}-7-(6-fluoropyridin-3-yl)-11-hydroxy-2,10a,12a-trimethyl-1,2,3,3a,3b,4,5,7,10,10a,10b,11,12,12a-tetradecahydrocyclopenta[5,6]naphtho[1,2-f]indazol-1-yl 1,3-oxazole-4-carboxylate] |
| 1.7 nM | C[C@H]1C[C@@H]2[C@H]([C@@H](O)C[C@@]3(C)[C@H]2CC[C@]3(OC(=O)c2ccco2)C(=O)SCC#N)[C@@]2(C)Cc3cnn(-c4ccc(F)nc4)c3C=C12 [Example 22, (1R,3aS,3bS,5S,10aR,10bS,11S,12aS)-1-{[(Cyanomethyl)sulfanyl]carbonyl}-7-(6-fluoropyridin-3-yl)-11-hydroxy-5,10a,12a-trimethyl-1,2,3,3a,3b,4,5,7,10,10a,10b,11,12,12a-tetradecahydrocyclopenta[5,6]naphtho[1,2-f]indazol-1-yl furan-2-carboxylate] |
| 0.57 nM | C[C@]12Cc3cnn(-c4ccc(F)nc4)c3C=C1CC[C@H]1[C@@H]3CC[C@](OC(=O)C4CCOC4)(C(=O)SCC#N)[C@@]3(C)C[C@H](O)[C@@]12F (single isomer, unassigned) [15 (R)/(S) isomer] |
| 1 nM | CCC(=O)O[C@]1(C(=O)SCC#N)CC[C@H]2[C@@H]3C[C@H](C)C4=Cc5c(cnn5-c5ccc(F)nc5)C[C@]4(C)[C@H]3[C@@H](O)C[C@@]21C [Example 23, (1R,3aS,3bS,5S,10aR,10bS,11S,12aS)-1-{[(Cyanomethyl)sulfanyl]carbonyl}-7-(6-fluoropyridin-3-yl)-11-hydroxy-5,10a,12a-trimethyl-1,2,3,3a,3b,4,5,7,10,10a,10b,11,12,12a-tetradecahydrocyclopenta[5,6]naphtho[1,2-f]indazol-1-yl propanoate] |
| 1.5 nM | C[C@H]1C[C@@H]2[C@H]([C@@H](O)C[C@@]3(C)[C@H]2CC[C@]3(OC(=O)c2cocn2)C(=O)SCF)[C@@]2(C)Cc3cnn(-c4ccc(F)nc4)c3C=C12 [Example 9, (1R,3aS,3bS,5S,10aR,10bS,11S,12aS)-1-{[(Fluoromethyl)sulfanyl]carbonyl}-7-(6-fluoropyridin-3-yl)-11-hydroxy-5,10a,12a-trimethyl-1,2,3,3a,3b,4,5,7,10,10a,10b,11,12,12a-tetradecahydrocyclopenta[5,6]naphtho[1,2-f]indazol-1-yl 1,3-oxazole-4-carboxylate] |
| 0.58 nM | C[C@]12Cc3cnn(-c4ccc(F)nc4)c3C=C1CC[C@H]1[C@@H]3CC[C@](OC(=O)C4CCOC4)(C(=O)SCC#N)[C@@]3(C)C[C@H](O)[C@@]12F (single isomer, unassigned) [15 (S)/(R) isomer] |
| 2.8 nM | C[C@H]1C[C@@H]2[C@H]([C@@H](O)C[C@@]3(C)[C@H]2CC[C@]3(OC(=O)c2ccco2)C(=O)SCF)[C@@]2(C)Cc3cnn(-c4ccc(F)nc4)c3C=C12 [Example 21, (1R,3aS,3bS,5S,10aR,10bS,11S,12aS)-1-{[(Fluoromethyl)sulfanyl]carbonyl}-7-(6-fluoropyridin-3-yl)-11-hydroxy-5,10a,12a-trimethyl-1,2,3,3a,3b,4,5,7,10,10a,10b,11,12,12a-tetradecahydrocyclopenta[5,6]naphtho[1,2-f]indazol-1-yl furan-2-carboxylate] |
| 0.53 nM | C[C@]12Cc3cnn(-c4ccc(F)nc4)c3C=C1CC[C@H]1[C@@H]3CC[C@](OC(=O)C4CCOC4)(C(=O)SCF)[C@@]3(C)C[C@H](O)[C@@]12F (mixture of isomers) [Example 16 (racemate), (1R,3aS,3bS,10aS,10bR,11S,12aS)-10b-Fluoro-1-{[(fluoromethyl)sulfanyl]carbonyl}-7-(6-fluoropyridin-3-yl)-11-hydroxy-10a,12a-dimethyl-1,2,3,3a,3b, 4,5,7,10,10a,10b,11,12,12a-tetradecahydrocyclopenta[5,6]naphtho[1,2-f]indazol-1-yl tetrahydrofuran-3-carboxylate] |
| 1.2 nM | C[C@H]1C[C@@H]2[C@H]([C@@H](O)C[C@@]3(C)[C@H]2CC[C@]3(OC(=O)C2CC2)C(=O)SCF)[C@@]2(C)Cc3cnn(-c4ccc(F)nc4)c3C=C12 [Example 25, (1R,3aS,3bS,5S,10aR,10bS,11S,12aS)-1-{[(Fluoromethyl)sulfanyl]carbonyl}-7-(6-fluoropyridin-3-yl)-11-hydroxy-5,10a,12a-trimethyl-1,2,3,3a,3b,4,5,7,10,10a,10b,11,12,12a-tetradecahydrocyclopenta[5,6]naphtho[1,2-f]indazol-1-yl cyclopropanecarboxylate] |
| 0.55 nM | C[C@]12Cc3cnn(-c4ccc(F)nc4)c3C=C1CC[C@H]1[C@@H]3CC[C@](OC(=O)C4CCOC4)(C(=O)SCC#N)[C@@]3(C)C[C@H](O)[C@@]12F (mixture of isomers) [Example 15 (racemate), (1R,3aS,3bS,10aS,10bR,11S,12aS)-1-{[(Cyanomethyl)sulfanyl]carbonyl}-10b-fluoro-7-(6-fluoropyridin-3-yl)-11-hydroxy-10a,12a-dimethyl-1,2,3,3a,3b,4,5,7,10,10a,10b,11,12,12a-tetradecahydrocyclopenta[5,6]naphtho[1,2-f]indazol-1-yl tetrahydrofuran-3-carboxylate] |
| 2.1 nM | C[C@H]1C[C@@H]2[C@H]([C@@H](O)C[C@@]3(C)[C@H]2CC[C@]3(OC(=O)C2CC2)C(=O)SCC#N)[C@@]2(C)Cc3cnn(-c4ccc(F)nc4)c3C=C12 [Example 11, (1R,3aS,3bS,5S,10aR,10bS,11S,12aS)-1-{[(Cyanomethyl)sulfanyl]carbonyl}-7-(6-fluoropyridin-3-yl)-11-hydroxy-5,10a,12a-trimethyl-1,2,3,3a,3b,4,5,7,10,10a,10b,11,12,12a-tetradecahydrocyclopenta[5,6]naphtho[1,2-f]indazol-1-yl cyclopropanecarboxylate] |
| 3.1 nM | C[C@]12Cc3cnn(-c4ccc(F)cc4)c3C=C1CC[C@@H]1[C@@H]2[C@@H](O)C[C@@]2(C)[C@H]1CC[C@]2(OC(=O)C1CCCO1)C(=O)SCCO (single isomer, unassigned) [Example 18] |

| Compound | IC50 |
| --- | --- |
| CC12Cc3cnn(-c4ccc(F)nc4)c3C=C1CC[C@@H]1C2[C@@H](O)C[C@@]2(C)[C@H]1CC[C@]2(OC(=O)C1CC1)C(=O)OCC#N (stereo in doubt) [Example 20, (1R,3aS,3bS,10aS,10bR,11S,12aS)-1-{[Cyanomethyloxy]carbonyl}-7-(6-fluoropyridin-3-yl)-11-hydroxy-10a,12a-dimethyl-1,2,3,3a,3b,4,5,7,10,10a,10b,11,12,12a-tetradecahydrocyclopenta[5,6]naphtho[1,2-f]indazol-1-yl cyclopropanecarboxylate] | 2.3 nM |
